{
  "source": "paper PMC10089784",
  "about": "“Inhibition of Gluconeogenesis by Boldine in the Perfused Liver: Therapeutical Implication for Glycemic Control” (International Journal of Hepatology, 2023)",
  "format_in_all_cases": "cell-based",
  "key": {"[1]": {"target": "T1, phosphoenolpyruvate carboxykinase (PEPCK) (Rattus norvegicus, UniProt P07379)", "T1 construct": "gene Pck1; rat liver cytosolic fraction", "T1 sequence (P07379 whole entry)": "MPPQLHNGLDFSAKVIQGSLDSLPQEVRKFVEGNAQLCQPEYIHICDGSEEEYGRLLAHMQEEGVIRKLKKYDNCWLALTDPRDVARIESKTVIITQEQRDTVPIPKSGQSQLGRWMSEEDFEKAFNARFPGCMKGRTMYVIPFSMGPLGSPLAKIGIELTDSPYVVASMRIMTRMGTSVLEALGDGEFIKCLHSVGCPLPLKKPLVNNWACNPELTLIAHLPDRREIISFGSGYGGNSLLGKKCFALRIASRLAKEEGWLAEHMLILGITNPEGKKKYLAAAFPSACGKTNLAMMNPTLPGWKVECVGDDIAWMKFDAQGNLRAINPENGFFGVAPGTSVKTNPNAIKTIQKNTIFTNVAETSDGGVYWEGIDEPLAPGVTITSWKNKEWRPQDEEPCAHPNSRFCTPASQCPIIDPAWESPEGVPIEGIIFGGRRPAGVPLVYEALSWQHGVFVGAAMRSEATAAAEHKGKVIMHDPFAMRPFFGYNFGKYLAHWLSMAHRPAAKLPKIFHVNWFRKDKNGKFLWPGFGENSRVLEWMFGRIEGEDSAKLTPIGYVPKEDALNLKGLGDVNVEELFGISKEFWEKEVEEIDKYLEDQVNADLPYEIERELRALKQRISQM", "assay": "enzyme activity in rat liver cytosolic fraction, coupled to malate dehydrogenase (NADH oxidation, […] nm); […] inhibition at […]"}, "[2]": {"target": "T2, glucose 6-phosphatase (G6Pase) (Rattus norvegicus, UniProt P43428)", "T2 construct": "gene G6pc1; isolated rat liver microsomes", "T2 sequence (P43428 1-357)": "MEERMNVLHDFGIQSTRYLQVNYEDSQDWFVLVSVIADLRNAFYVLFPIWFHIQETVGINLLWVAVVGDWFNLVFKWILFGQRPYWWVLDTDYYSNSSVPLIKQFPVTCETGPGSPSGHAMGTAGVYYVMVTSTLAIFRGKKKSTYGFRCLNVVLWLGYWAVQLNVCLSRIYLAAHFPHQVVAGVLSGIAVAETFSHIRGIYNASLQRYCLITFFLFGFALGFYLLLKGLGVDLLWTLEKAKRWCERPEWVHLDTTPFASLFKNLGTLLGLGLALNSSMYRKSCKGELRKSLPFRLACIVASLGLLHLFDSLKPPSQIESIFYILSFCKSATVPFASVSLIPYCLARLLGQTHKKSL", "assay": "phosphate release from glucose 6-phosphate in isolated rat liver microsomes; […] inhibition at […]"}, "[3]": {"target": "T3, fructose 1,6-bisphosphatase (FBPase-1) (Rattus norvegicus, UniProt P19112)", "T3 construct": "gene Fbp1; rat liver cytosolic fraction", "T3 sequence (P19112 2-363)": "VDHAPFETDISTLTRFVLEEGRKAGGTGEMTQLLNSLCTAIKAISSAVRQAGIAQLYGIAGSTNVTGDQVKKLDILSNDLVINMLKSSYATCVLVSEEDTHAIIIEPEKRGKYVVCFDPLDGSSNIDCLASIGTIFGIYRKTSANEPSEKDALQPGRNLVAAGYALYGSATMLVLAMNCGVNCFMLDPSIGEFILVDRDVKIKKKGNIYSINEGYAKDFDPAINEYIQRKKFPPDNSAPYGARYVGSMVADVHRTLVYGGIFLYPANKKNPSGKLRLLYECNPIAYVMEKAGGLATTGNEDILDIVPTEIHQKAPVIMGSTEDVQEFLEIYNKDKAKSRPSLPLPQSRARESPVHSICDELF", "assay": "phosphate release from fructose […],6-bisphosphate in rat liver cytosolic fraction; […] (incomplete) inhibition at […]"}},
  "data": [
    {"smiles": "COc1cc2c(cc1O)C[C@H]1c3c(cc(O)c(OC)c3-2)CCN1C", "note": "[boldine, 1,10-dimethoxy-2,9-dihydroxy aporphine]", "values": [
      {"measurement": "inhibition at 200 µM", "setting": "[1]", "value": 49, "unit": "%"},
      {"measurement": "inhibition at 200 µM", "setting": "[2]", "value": 35, "unit": "%"},
      {"measurement": "inhibition at 200 µM", "setting": "[3]", "value": 42, "unit": "%"}
    ]}
  ]
}
